This assay deals with human MGL from HeLa cells (Homo sapiens (Human), UniProt Q99685). Put plainly: MGL in vitro activity assay ([glycerol-1,3-3H]-oleoyl glycerol hydrolysis, activated carbon filtration). The assay is classed as biochemical. The conditions noted are these: 300 nM [Glycerol-1,3-3H]-oleoyl glycerol, one hour. The procedure, abridged:
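Activity measured as tritium in the flow-through after activated carbon filtration of a 1 h reaction containing 300 nM 3H-oleoyl glycerol, compound and HeLa-derived human MGL. Compounds screened at 10 μM; IC50 series start at an empirically chosen highest concentration.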
Sequence of human MGL from HeLa cells (Q99685 whole entry): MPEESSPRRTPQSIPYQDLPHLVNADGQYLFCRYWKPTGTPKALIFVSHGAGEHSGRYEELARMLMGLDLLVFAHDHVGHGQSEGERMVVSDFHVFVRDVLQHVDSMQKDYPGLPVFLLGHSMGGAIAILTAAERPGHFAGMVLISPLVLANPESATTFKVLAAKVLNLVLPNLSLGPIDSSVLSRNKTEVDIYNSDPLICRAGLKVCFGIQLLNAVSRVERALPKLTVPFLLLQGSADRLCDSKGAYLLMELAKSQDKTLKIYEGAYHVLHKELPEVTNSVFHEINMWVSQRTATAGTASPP
Take `CC(C)(C)c1cc(C2CCC3(CC2)CN(C(=O)[C@H]2C[C@@](C)(O)C2)C3)ccn1` [Example 139, (7-(2-(tert-Butyl)pyridin-4-yl)-2-azaspiro[3.5]nonan-2-yl)((1s,3s)-3-hydroxy-3-methylcyclobutyl)methanone]: the midpoint of inhibition, the IC50, lay at 167 nM.
In the case of `Cc1cc(C(F)(F)F)ccc1OC1CCC2(CC1)CN(C(=O)[C@H]1C[C@@](C)(O)C1)C2` [Example 258, ((1s,3s)-3-Hydroxy-3-methylcyclobutyl)(7-(2-methyl-4-(trifluoromethyl)phenoxy)-2-azaspiro[3.5]nonan-2-yl)methanone] it was 0.2 nM; in that of `COc1cc(C2CCC3(CC2)CN(C(=O)[C@H]2C[C@@](C)(O)C2)C3)ccc1F` [Example 103, (7-(4-Fluoro-3-methoxyphenyl)-2-azaspiro[3.5]nonan-2-yl)((1s,3s)-3-hydroxy-3-methylcyclobutyl)methanone], 99 nM.
`C[C@]1(O)C[C@@H](C(=O)N2CC3(CCC(c4cnc5ccccn45)CC3)C2)C1` [Example 392, ((1s,3s)-3-Hydroxy-3-methylcyclobutyl)(7-(imidazo[1,2-c]pyridin-3-yl)-2-azaspiro[3.5]nonan-2-yl)methanone] displayed an IC50 of 790 nM.
As for `C[C@]1(O)C[C@@H](C(=O)N2CC3(CCC(Cc4ccc(C(F)F)cc4)CC3)C2)C1` [Example 162, (7-(4-(Difluoromethyl)benzyl)-2-azaspiro[3.5]nonan-2-yl)((1s,3s)-3-hydroxy-3-methylcyclobutyl)methanone], the IC50 turned out to be 29 nM.
`Cc1ccc(OC(F)F)cc1C1CCC2(C1)CN(C(=O)[C@H]1C[C@@](C)(O)C1)C2` (mixture of isomers) [Example 85, (rac)-(6-(5-(Difluoromethoxy)-2-methylphenyl)-2-azaspiro[3.4]octan-2-yl)((1s,3s)-3-hydroxy-3-methylcyclobutyl)methanone] had an IC50 of 42 nM.
In the case of `Cn1ncc2cc(F)c(CC3CC4(C3)CN(C(=O)[C@H]3C[C@@](C)(O)C3)C4)cc21` [Example 304, (6-((5-Fluoro-1-methyl-1H-indazol-6-yl)methyl)-2-azaspiro[3.3]heptan-2-yl)((1s,3s)-3-hydroxy-3-methylcyclobutyl)methanone] it was 13 nM.
`COc1cccc(C2CCC3(C2)CN(C(=O)[C@H]2C[C@@](C)(O)C2)C3)c1F` (mixture of isomers) [Example 79, (rac)-(6-(2-Fluoro-3-methoxyphenyl)-2-azaspiro[3.4]octan-2-yl)((1s,3s)-3-hydroxy-3-methylcyclobutyl)methanone] showed a half-maximal inhibitory concentration (IC50) of 242 nM. Compared with the last molecule, the IC50 is about 19-fold higher.
In the case of `Cc1ccc(CC2CC3(C2)CN(C(=O)[C@H]2C[C@@](C)(O)C2)C3)cc1` [Example 166, ((1s,3s)-3-Hydroxy-3-methylcyclobutyl)(6-(4-methylbenzyl)-2-azaspiro[3.3]heptan-2-yl)methanone] it was 14 nM; in that of `C[C@]1(O)C[C@@H](C(=O)N2CC3(CCC(c4ccc5c(c4)CCC5)C3)C2)C1` (mixture of isomers) [Example 16, (rac)-(6-(2,3-Dihydro-1H-inden-5-yl)-2-azaspiro[3.4]octan-2-yl)((1s,3s)-3-hydroxy-3-methylcyclobutyl)methanone], 10 nM.
In the case of `COc1ccc(Cl)c(OC2CCC3(CC2)CN(C(=O)[C@H]2C[C@@](C)(O)C2)C3)n1` [Example 462, (7-((3-Chloro-6-methoxypyridin-2-yl)oxy)-2-azaspiro[3.5]nonan-2-yl)((1s,3s)-3-hydroxy-3-methylcyclobutyl)methanone], the IC50 is 6.8 nM.
In the case of `CCc1ccc(C(F)F)c(OC2CCC3(CC2)CN(C(=O)[C@H]2C[C@@](C)(O)C2)C3)n1` [Example 441, (7-((3-(Difluoromethyl)-6-ethylpyridin-2-yl)oxy)-2-azaspiro[3.5]nonan-2-yl)((1s,3s)-3-hydroxy-3-methylcyclobutyl)methanone] it was 14 nM; in that of `Cc1cc(OC2CC3(CCN(C(=O)[C@H]4C[C@@](C)(O)C4)CC3)C2)ccc1C(F)(F)F` [Example 480, ((1s,3s)-3-Hydroxy-3-methylcyclobutyl)(2-(3-methyl-4-(trifluoromethyl)phenoxy)-7-azaspiro[3.5]nonan-7-yl)methanone], 5.8 nM.

Values taken from US11802111B2, “Cyclobutyl amide monoacylglycerol lipase modulators” (Janssen Pharmaceutica NV, priority 2020, dated 2023).
